According to ChEMBL document CHEMBL1201862, “PubChem BioAssay data set” (2004):
Where “and” joins values, the source holds several entries; their conditions need not be identical. Equal values may be shown once. Calls of active or inactive are those of the source.

Columns and labels:
[1] = viability of uninfected HEp-2 cells – cell-based, HTS, cytotoxicity control for RSV inhibitor project, dose response (AID 2410); format: functional; conditions: human respiratory syncytial virus
[2] = biological target: T1, Ubiquitin-conjugating enzyme E2 N (Homo sapiens, UniProt P61088); format: functional;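 note: Dose-response confirmation in a TR-FRET assay detecting UBC13-driven polyubiquitin chain formation, inhibition measured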
T1 sequence (P61088 whole entry): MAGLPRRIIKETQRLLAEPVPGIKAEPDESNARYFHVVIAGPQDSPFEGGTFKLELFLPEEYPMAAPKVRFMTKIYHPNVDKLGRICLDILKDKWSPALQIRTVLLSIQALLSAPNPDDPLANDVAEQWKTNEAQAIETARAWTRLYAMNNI

[3] = test system: Streptococcus sp. 'group A'; experiment: Streptococcus pyogenes SK(-)GAS viability under kanamycin – luminescence, BacTiterGlo, confirmation, counter-screen for streptokinase expression inhibitor project, dose response (AID 1900); format: functional, organism-based
Streptokinase A = biological target: T2, Streptokinase A (Streptococcus pyogenes serotype M1, UniProt P10520); experiment: viability-normalized secreted streptokinase activity reduction – plasminogen activation absorbance, OD405, dose response (AID 1914); format: functional, Streptococcus pyogenes M1 GAS;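 note: secreted streptokinase activity via plasminogen activation per viability signal from cell pellet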
T2 sequence (P10520 whole entry): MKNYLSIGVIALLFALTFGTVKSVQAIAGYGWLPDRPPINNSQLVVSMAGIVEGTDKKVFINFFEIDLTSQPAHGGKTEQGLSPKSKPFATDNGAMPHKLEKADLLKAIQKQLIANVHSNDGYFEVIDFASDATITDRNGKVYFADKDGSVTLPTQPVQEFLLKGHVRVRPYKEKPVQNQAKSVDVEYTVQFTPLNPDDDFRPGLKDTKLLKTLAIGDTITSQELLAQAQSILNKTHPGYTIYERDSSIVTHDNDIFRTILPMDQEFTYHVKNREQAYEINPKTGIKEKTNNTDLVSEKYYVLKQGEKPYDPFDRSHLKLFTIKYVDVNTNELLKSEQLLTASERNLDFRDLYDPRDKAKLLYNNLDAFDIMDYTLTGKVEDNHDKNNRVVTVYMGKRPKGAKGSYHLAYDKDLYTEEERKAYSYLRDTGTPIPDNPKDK

[4] = Trypanosoma cruzi growth suppression in host cells – NIH3T3 host cells, beta-gal luminescence, confirmation (AID 2044); format: functional, cell-based;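 note: intracellular parasites grown in NIH/3T3 mouse fibroblasts as host cells; luminescent beta-galactosidase reporter signal from transgenic T. cruzi replicating inside host cells; inhibitors lower the luminescence signal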
[5] = NIH3T3 cell viability loss – ATP luminescence, mouse fibroblasts, counter-screen, dose response (AID 2010); format: functional, cell-based;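 note: cells exposed to compound for about 90 hours before reading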
Streptococcus = experiment: GAS UMAA2166 growth inhibition – luminescence, BacTiterGlo, counter-screen for streptokinase expression inhibitor project, dose response (AID 1915); format: functional, organism-based;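 note: potency for reduction of bacterial viability or growth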
Large T antigen = Large T antigen (Simian virus 40, UniProt P03070); format: functional, Betapolyomavirus macacae;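 note: Confirmatory-stage PubChem screen for compounds that inhibit SV40 T antigen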
H9c2 = experiment: cells; format: functional, cell-based; conditions: Rattus norvegicus, H9c2, Myocardium;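 note: confirmatory concentration-response retest of ultra-high-throughput screening hits for modulation of myocardial damage; cell death induced by hydrogen peroxide oxidative stress; compound pretreatment for 60 min then peroxide exposure for 2 h; potency is for protecting the cells against peroxide damage rather than for killing them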
[6] = viability of PTEN-deleted HCT116 cells – cell-based, HCT116 PTEN knockout, dose response (AID 1047); format: functional;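 note: HCT116 colon tumor cells with PTEN knocked out; cells exposed to compound for 60 hours before readout; potency for loss of cell viability measured by luminescence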
[7] = viability of HCT116 lacking mutant beta-catenin – cell-based, human colon tumor, dose response (AID 1045); format: functional;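 note: HCT116 colon tumor cells with beta catenin knocked out; cells exposed to compound for 60 hours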
[8] = biological target: T3, Rac GTPase-activating protein 1 (Homo sapiens, UniProt Q9H0H5); experiment: blockers of MgcRacGAP-driven Rac1 GTP hydrolysis – biochemical, ADP Hunter fluorescence, primary and confirmatory, confirmation (AID 624330); format: functional
T3 sequence (Q9H0H5 whole entry): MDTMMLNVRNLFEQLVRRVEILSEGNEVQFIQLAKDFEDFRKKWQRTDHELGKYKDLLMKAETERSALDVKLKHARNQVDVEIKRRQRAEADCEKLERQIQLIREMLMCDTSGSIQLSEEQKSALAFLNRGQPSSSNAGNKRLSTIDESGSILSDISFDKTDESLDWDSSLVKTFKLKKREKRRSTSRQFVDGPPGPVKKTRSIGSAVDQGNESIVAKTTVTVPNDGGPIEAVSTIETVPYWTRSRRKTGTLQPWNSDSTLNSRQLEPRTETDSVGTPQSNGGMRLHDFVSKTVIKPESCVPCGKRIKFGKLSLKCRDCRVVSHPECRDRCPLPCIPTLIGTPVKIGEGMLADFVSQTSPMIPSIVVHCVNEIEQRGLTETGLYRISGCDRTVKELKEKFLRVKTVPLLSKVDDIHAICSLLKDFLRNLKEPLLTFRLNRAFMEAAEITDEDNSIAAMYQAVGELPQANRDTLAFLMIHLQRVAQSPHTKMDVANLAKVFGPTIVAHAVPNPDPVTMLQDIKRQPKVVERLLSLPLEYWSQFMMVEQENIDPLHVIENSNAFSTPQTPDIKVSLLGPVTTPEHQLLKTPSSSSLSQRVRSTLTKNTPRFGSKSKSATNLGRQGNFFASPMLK

[9] = biological target: T4, Heat shock factor protein 1 (Mus musculus, UniProt P38532); experiment: enhancement of HSF1-driven luciferase signal – cell-based, NIH3T3, luminescence, dose retest, confirmation (AID 435004); format: functional;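 note: stress induced by proteasome inhibitor MG132 added 30 min after compound; luciferase reporter driven by HSF1 response element in NIH3T3 cells; actives raise luminescence as potentiators of the MG132 stress response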
T4 sequence (P38532 whole entry): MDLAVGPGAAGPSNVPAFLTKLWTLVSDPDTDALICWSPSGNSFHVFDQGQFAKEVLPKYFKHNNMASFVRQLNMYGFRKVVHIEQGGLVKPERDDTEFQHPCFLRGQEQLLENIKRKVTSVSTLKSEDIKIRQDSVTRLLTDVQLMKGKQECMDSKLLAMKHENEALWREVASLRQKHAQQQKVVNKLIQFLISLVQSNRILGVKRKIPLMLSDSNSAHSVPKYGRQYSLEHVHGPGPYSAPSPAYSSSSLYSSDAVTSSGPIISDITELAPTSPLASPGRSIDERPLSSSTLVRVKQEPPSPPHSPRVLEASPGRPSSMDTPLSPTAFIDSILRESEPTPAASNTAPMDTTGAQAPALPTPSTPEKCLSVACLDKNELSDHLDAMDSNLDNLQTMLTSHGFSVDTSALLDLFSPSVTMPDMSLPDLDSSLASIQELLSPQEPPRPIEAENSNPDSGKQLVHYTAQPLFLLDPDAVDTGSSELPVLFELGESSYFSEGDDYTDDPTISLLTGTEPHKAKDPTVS

[10] = biological target: FAD-linked sulfhydryl oxidase ALR (Homo sapiens, UniProt P55789); experiment: ALR-catalysed DTT oxidation blockers – biochemical, H2O2 detection, luminescence, cherry-pick, dose response (AID 493248)
[11] = reduction of Shn3 3'UTR-driven luciferase in osteoblasts – cell-based, Clone20 osteoblasts, firefly luciferase, cherry-picked, dose response (AID 624132); format: functional;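 note: firefly luciferase luminescence from reporter carrying the Shn3 3'UTR in osteoblasts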

Large T antigen, sequence (P03070 whole entry): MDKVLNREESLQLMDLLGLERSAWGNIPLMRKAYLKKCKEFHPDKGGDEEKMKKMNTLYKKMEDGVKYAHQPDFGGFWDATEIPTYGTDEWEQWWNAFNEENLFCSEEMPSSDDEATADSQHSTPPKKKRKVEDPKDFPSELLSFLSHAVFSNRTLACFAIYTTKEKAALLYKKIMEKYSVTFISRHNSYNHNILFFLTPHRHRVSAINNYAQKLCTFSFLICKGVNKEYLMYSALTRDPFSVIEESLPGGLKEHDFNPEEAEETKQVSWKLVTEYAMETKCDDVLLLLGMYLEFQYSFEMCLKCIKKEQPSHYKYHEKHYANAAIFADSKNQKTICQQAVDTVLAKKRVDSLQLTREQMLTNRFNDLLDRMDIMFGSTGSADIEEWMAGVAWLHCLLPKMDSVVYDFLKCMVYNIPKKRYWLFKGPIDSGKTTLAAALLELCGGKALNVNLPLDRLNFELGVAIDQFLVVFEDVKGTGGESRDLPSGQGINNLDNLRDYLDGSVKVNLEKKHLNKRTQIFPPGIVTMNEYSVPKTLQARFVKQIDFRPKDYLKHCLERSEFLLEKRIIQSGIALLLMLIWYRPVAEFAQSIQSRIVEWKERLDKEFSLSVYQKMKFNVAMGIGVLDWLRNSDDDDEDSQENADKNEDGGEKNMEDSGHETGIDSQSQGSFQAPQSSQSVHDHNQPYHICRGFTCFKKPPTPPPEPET
FAD-linked sulfhydryl oxidase ALR, sequence (P55789 whole entry): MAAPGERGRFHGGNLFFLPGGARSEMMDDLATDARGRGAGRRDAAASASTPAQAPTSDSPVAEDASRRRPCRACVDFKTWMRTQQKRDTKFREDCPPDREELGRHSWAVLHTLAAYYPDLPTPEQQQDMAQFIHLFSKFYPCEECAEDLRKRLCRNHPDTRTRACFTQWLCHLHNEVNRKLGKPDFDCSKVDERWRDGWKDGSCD

With `CNCC(O)c1cc(OCc2ccccc2)c(OCc2ccccc2)cc1F` (stereo not given) the CC50 [1] was 22.3 µM (active) and the IC50 [2] was > 20 µM (inactive).

In the case of `C=CCn1c(NC(=O)c2ccc(C)cc2)nc2ccccc21`, the EC50 [3] is reported as 84.6 µM (active), the EC50 (Streptokinase A) is reported as > 150 µM (not active) and the EC50 [4] is reported as 2.11 µM (active). The EC50 [5] was > 60 µM (not active), the EC50 (Streptococcus) was > 150 µM (not active) and the IC50 [2] was > 20 µM (inactive).

For `CC(=O)Oc1ccc(C(=O)OCC(=O)c2c(N)n(C)c(=O)n(C)c2=O)cc1OC(C)=O`, the IC50 (Large T antigen) was 8.56 µM (active) and the IC50 (H9c2) was 6.29 µM (active).

With `CCN(CC)S(=O)(=O)c1cc(C(=O)Nc2cc(Cl)ccc2N2CCN(C)CC2)ccc1Cl` the EC50 [6] was 13.3 µM (active) and the EC50 [7] was 15.8 µM (active).

In the case of `Cc1ccc(C23CC4CC(CC(NC(=O)NCCN(C)C)(C4)C2)C3)cc1`, the EC50 [4] is reported as 0.948 µM (active), the EC50 [6] is reported as 20.9 µM (active) and the EC50 [5] is reported as > 60 µM (not active). For the same compound, the EC50 [7] was 17.9 µM (active).

In the case of `Cc1cccc2sc(N(CCN3CCOCC3)C(=O)CCS(=O)(=O)c3ccccc3)nc12`, the IC50 [2] is reported as > 20 µM (inactive).

For `CN(C)c1ccc(NS(=O)(=O)c2ccc(Cl)cc2)cc1`, the IC50 (Large T antigen) was 11.7 µM (active) and the IC50 [8] was 30.6 µM (active).

For `Cc1cccc(OCC(O)CN2CCN(CCN3C(=O)c4cccc5cccc(c45)C3=O)CC2)c1C` (stereo not given), the EC50 [4] was 2.14 µM (active), the EC50 [5] was 8.54 µM (active) and the IC50 [2] was > 20 µM (inactive).

In the case of `CC(=O)N1CCC2(CC1)NC(=O)N(c1ccccc1)N2`, the EC50 [9] is reported as 136 µM (active) and the AC50 [10] is reported as 5 µM (active).

For `Cc1ccnc(-n2c(C)cc(/C=C3\C(=O)NC(=S)N(C)C3=O)c2C)c1`, the EC50 [6] was 95.3 µM (active) and the EC50 [7] was 65.8 µM (active).

For `Cc1ccc(S(=O)(=O)N2CCCC(C(=O)NNCC(=O)Nc3cc(F)ccc3F)C2)cc1` (stereo not given), the IC50 [2] was > 20 µM (inactive).

With `O=C(NCCCn1ccnc1)c1nn2c(C(F)(F)F)cc(-c3ccc(Br)cc3)nc2c1Cl` the EC50 [6] was 16.8 µM (active) and the EC50 [7] was 33.2 µM (active).

With `Cc1ccc[n+](CC(=O)Nc2ccc(N(C)C)cc2)c1` the AC50 [10] was 2.2 µM (active) and the IC50 [8] was 113 µM (active).

For `Cc1ccc(OC(=O)CCC(=O)Oc2ccc(C)cc2C)c(C)c1`, the AC50 [11] was 3.51 µM (active).

For `Cc1ccc(C)c(S(=O)(=O)Nc2ccc(-n3cnnn3)cc2)c1`, the AC50 [11] was > 70 µM (inactive).

With `COc1ccccc1NC(=O)c1c(/N=C/c2c(O)ccc3ccccc23)cnn1C` the IC50 [2] was > 20 µM (inactive).

With `Oc1ccc(N/C(S)=N/c2ccccc2)cc1` the IC50 (Large T antigen) was 5.61 µM (active) and 8.33 µM (active), the EC50 [9] was > 260 µM (inactive) and the IC50 [8] was 32.9 µM (active).

For `COc1cc(/C=N/NC(=O)C(C)n2nnc3ccccc32)ccc1O` (stereo not given), the IC50 (Large T antigen) was 19.8 µM (active), the AC50 [10] was 0.332 µM (active) and the IC50 [8] was 25.5 µM (active).

With `Sc1nnc(-c2[nH]nc3c2CCC3)n1/N=C/C=C/c1ccco1` the IC50 (Large T antigen) was 18.1 µM (active).

With `OC1=C(/C=N/c2ccc(O)cc2)CCCC1` the IC50 (Large T antigen) was 6.66 µM (active) and the IC50 [8] was 12.5 µM (active).

With `Cc1ccc2nc(N=C(N)NC(=O)NC3CCCCC3)nc(C)c2c1` the EC50 (Streptokinase A) was 52.7 µM (active) and the IC50 [2] was > 20 µM (inactive).
